Laboratory results published in a melting point compilation (Tetko et al.; mined from patent text by program, amines drawn as free bases though some values may be those of a salt).

melting point [°C]	Structure (SMILES)
252 to 254	Cc1cc2oc(NC(=O)Nc3c(C)cccc3C)c(-c3ccccc3Cl)c2cc1C
212 to 213	Brc1cnc2c(c1)ncn2-c1cccc(-c2cccnc2)c1
164 to 166	CC(Oc1ccc(C(=O)NCCN(O)C(N)=O)cc1)c1ccccc1 (stereo not given)
209 to 211	COc1ccc(-c2ccc3c(c2)c2c(Cl)ccnc2n3S(=O)(=O)c2ccccc2)cc1
163 to 165	CCOc1cc(-c2nc(-c3cnc(N)c(C)c3)no2)ccc1-c1ccccc1C(F)(F)F
123 to 125	CCOC(=O)c1cnn2c(-c3cccc(NC(=O)C4CCC4)c3)ccnc12
44 to 46	CCOC(=O)c1ccc(SC)cn1
185 to 187	COc1ccc(NC(=O)c2coc(Br)c2)cc1N1CCN(C)CC1
40 to 42	COCOc1ccccc1OCBr
143 to 148	Cn1ccc2cc(C(=N)Nc3cccc(NC(=O)C=Cc4ccccc4)c3)ccc21
75 to 77	CCC(=NOC)c1cccc(Oc2nc(OC)cc(OC)n2)c1C(=O)OC
138 to 139	CCOC(=O)c1c(Cn2cnnc2)nc2sc(C)c(C)c2c1-c1ccc(Cl)cc1
65 to 66	O=C(CN1C(=O)CC1SCc1ccccc1)NCCCCCCc1ccc(F)cc1F (stereo not given)
100 to 102	C=CCn1c(COCc2ccc(OC)cc2)nc(C(C)C)c1Sc1cc(Cl)cc(Cl)c1
136 to 137	CN(C=C(C#N)C#N)c1ccc(Cl)cn1
126 to 128	COc1ccccc1N1CCN(CCCOc2cc(C(=O)c3cc4ccccc4[nH]3)ccc2OCc2ccc(C)cc2)CC1
107 to 111	O=C(NC[C@H](O)[C@@H](O)[C@H](O)C(=O)CO)OCc1ccccc1
61 to 62	O[C@H](CCc1cccnc1)COc1ccc(-c2cccc(F)c2)cc1
94 to 95	CCCCCCCCCCCCCCCCCCCCCCC(COC(C)=O)(COC(C)=O)NC(C)=O
94 to 96	C#Cc1cccc(NC(C)=O)c1
163 to 165	CC1CC(=O)c2c(SCc3ccccc3)ccc(-c3ccccn3)c2C1 (stereo not given)
141 to 143	CC(=O)N1C(C(=O)c2cn(C(=O)OC(C)(C)C)c3ccccc23)CSC1c1cccnc1 (stereo not given)
132	O=C(c1ccccc1)C1OC1c1ccccc1Cl (stereo not given)
55 to 56	CCCCSCC(=O)N(Cc1cccnc1)C(C)(C)C

melting point [°C]	Structure (SMILES)
115	COC1(c2cccc(S(=O)(=O)c3ccc4c(c3)C(C)(C)S(=O)(=O)C4(C)C)c2)CCOCC1
288 to 290	CS(=O)(=O)c1ccc(C(=O)O)c(Cl)c1-c1nccs1
102 to 104	COc1cc2c(c(OC)c1/C=C/c1ccc(CO)cc1)C(C)(C)CCC2(C)C
116 to 118	CCCCCS(=O)(=O)NC(=O)/C=C/c1ccc(OCCC2OCCO2)cc1Oc1ncc(C(F)(F)F)cc1Cl
46 to 47	Cc1cc(C)c2c(c1)OCC2c1ccc(C(C)C)cc1 (stereo not given)
111 to 114	N#CC(c1ccccc1)(c1ccccc1)C1CN(C2CCCCC2)C1
154 to 155	CSc1ccc(-c2nn(Cc3ccc(Cl)cc3Cl)c(=O)cc2-c2ccc(Cl)cc2)cc1
149	FCC=Cc1ncn(C(c2ccccc2)(c2ccccc2)c2ccccc2)n1
68 to 71	Cc1noc(NS(=O)(=O)c2ccc(NCCc3ccccc3)cc2-c2ccc(CC(C)C)cc2)c1C
135 to 136	CC(OCc1ccc(-c2ccc(Cl)cc2)cc1)(C(=O)O)C(F)(F)F (stereo not given)
146 to 147	CCS(=O)(=O)c1cc2c(c(C(=O)Cl)c1)OCCO2
242	Fc1cccc(COc2ccc(Nc3ncnc4cc(C#Cc5ccccn5)sc34)cc2Cl)c1
137 to 140	CC(C)(C)C(=O)Nc1ccncc1
67 to 69	COC(=O)C(=Cc1ccccc1Cl)c1ccccc1
74	O=C(O)CCCc1cc2nc(Cl)ccc2n1S(=O)(=O)c1cccc2nccnc12
186 to 191	O=c1c(-c2ccccc2)c(Cn2cnc3ccccc32)oc2ccccc12
188 to 190	COc1cc(C)c(N2C(=O)CS/C2=N/N=C\c2ccc(-c3ncn(-c4ccc(OC(F)(F)F)cc4)n3)cc2)c(C)c1
78 to 79	COC(=O)CCC(=O)Nc1cccnc1
108 to 109	CCOc1ccc(-c2nc(-c3ccc(SC(=O)N(C)C)c(C(=O)OC)c3)cs2)cc1OCC
174 to 176	Cc1nc2c(o1)CCc1ccccc1C2=O
216 to 217	CC1SC(=O)N(C(=O)C2CC3CCC2(C)C3(C)C)N=C1c1ccc2c(c1)CCCN2C(=O)c1ccc2c(c1)OCO2 (stereo not given)
180 to 182	CN(C(=O)c1ccc(N)cc1)[C@@H]1CN(C2CCCCC2)C[C@H]1O (relative stereo)
192 to 193	O=C(O)CCC(=O)C(=O)Nc1ccccc1
204 to 206	Cn1ncnc1COc1nn2c(-c3ccccc3F)nnc2cc1-c1cccc(F)c1

melting point [°C]	Structure (SMILES)
168 to 170	CCC(=O)NCCC1=C(C(C)C)Cc2cnc3c(c21)CCO3
159 to 160	Cc1nc2c(N)nc3ccccc3c2n1CCOCc1ccccc1
162 to 163	CC(=O)NC(=O)c1cncc([N+](=O)[O-])c1
160 to 161	COC(=O)c1cccc(C(=O)c2cc(C(=O)OC)cc(OC)c2OC)c1
234 to 235	CC(=O)OCC1OC(n2cnc3c(O)nc(Nc4ccccc4)nc32)C(OC(C)=O)C1OC(C)=O (stereo not given)
94 to 97	CC(=O)C(C)Sc1cc(C(C)(C)C)c(O)c(C(C)(C)C)c1 (stereo not given)
283 to 285	CCCN1C(=O)N2CCN=C2c2[nH]cnc21
241 to 242	O=C(Nc1cccc2c1C(=O)c1c-2n[nH]c1-c1ccc(C(=O)N2CCNCC2)s1)NN1CCOCC1
189 to 192	Cc1c(F)c(N2CCNC(C)C2)cc2c1c(=O)c(C(=O)O)cn2C1CC1 (stereo not given)
156 to 157	COC(=O)c1csc(CCCc2coc3nc(N)nc(N)c23)c1
59 to 60	COC(=O)CCCCC(NC(=O)c1ccccc1)C(C)=O (stereo not given)
148 to 150	O=C(C1Oc2ccccc2OC1c1ccccc1)N1CCOCC1 (stereo not given)
134 to 136	Cc1ccn(-c2ccc(C(=O)N3Cc4cccn4Cc4ccccc43)c(O)c2)n1
118 to 120	CC(CCCC(C)(C)O)C1CCC2C3=CC=C4CC(O)C(OCCCO)C(O)C4(C)C3CCC21C (stereo not given)
68 to 73	C#CCOc1ccc2ccccc2c1COC(=O)C1CC1
178 to 179	Cc1oc(-c2ccccc2)nc1CCOc1ccc(CC(C)(C(=O)O)c2ccccc2)cc1 (stereo not given)
236	c1ccc(-c2cc3nnc(-c4ccccc4)n3nc2OCc2cscn2)cc1
220 to 223	O=S1(=O)NC(C2CCCCC2)=Nc2cccc(CO)c21
251	O=C(c1ccc(I)cc1)c1ccc2[nH]c(=O)cc(-c3cccc(Cl)c3)c2c1
92 to 93	COc1cc(OC)nc(Cc2ccccc2[N+](=O)[O-])n1
170	C/C(=N\O)c1cccc(NC(=O)NCC(=O)N(CC(=O)N(C)c2ccccc2)c2ccccc2)c1
128 to 129	COCn1cc(-c2coc3ccc(-c4nnc(C)o4)cc23)cn1
185	COc1cc(NC(C)=O)c(Cl)cc1C(=O)NN1CCN(Cc2ccccc2)CC1
136 to 137	Cc1ccc(-c2nc(Cl)nc(Cl)n2)c(C)c1

melting point [°C]	Structure (SMILES)
164 to 166	CC(=O)n1c(C(=O)O)cc2cc3c(cc21)OCO3
103	CCCC(Cn1ncnc1S)c1ccc(Cl)cc1Cl (stereo not given)
72 to 78	C=CCOC(=O)NC(C)(C)c1ccc(-c2nc(Nc3ccc(CCn4ccnc4)cc3)ncc2Cl)cc1
155 to 156	O=C(O)C(=O)c1ccc(OCCOc2ccc3ccccc3c2)cc1F
74 to 75	Cc1cc(C)c(CO)c(-c2ccc(F)c(C)c2)c1
246	Cc1nc(Cl)c2c(c1O)COC2(C)c1ccccc1 (stereo not given)
214 to 215	CC1OC(c2ccccc2Cl)c2cc(Cl)ccc2NC1=O (stereo not given)
323 to 324	CCOC(=O)c1cn(C)c2nc3cc(F)c(F)cc3cc2c1=O
186 to 188	CCCCNN1C2=C(C=C(C)C1C(=O)OCC)CCC(=O)N2 (stereo not given)
80 to 82	COc1ccc2c(c1)CC[C@@H](Br)[C@@H]2O (relative stereo)
81 to 82	CCOc1ccc(C(=O)COC(C)=O)cc1
140 to 143	Cc1c(Br)c[nH]c1C=O
167 to 168	COc1cccc(-c2nc(-c3ccc(S(C)=O)cc3)[nH]c2-c2ccncc2)c1 (stereo not given)
153 to 155	COc1cc(OC)c([N+](=O)[O-])cc1[N+](=O)[O-]
230 to 232	NC(=O)NCc1cccc(-c2csc(N=C(N)N)n2)c1
113	CCOc1cccc2oc(C(N)=O)cc12
140 to 141	COc1cc(-c2c(Cl)c(CN3CCCC3=O)nc3sc4c(c23)CCN(Cc2ccccc2)C4)ccc1OC(C)C
93 to 94	Cc1cc(N2CCN(CC(=O)c3ccc(NS(C)(=O)=O)cc3)CC2)ccn1
135 to 137	COC(=O)C1=C(C)N=C(C)C(C(=O)OC)C(c2ccccc2)C1 (stereo not given)
134	CCOC(=O)C1=NN(C(=O)c2ccccc2)C(C(=O)OCC)=NN1C(=O)c1ccccc1
210 to 212	O=c1c2c(oc3c1nnn3Cc1ccccc1)CSC2
94 to 105	CCN(C(=O)C(C)Cl)c1cn(-c2cccnc2)nc1Cl (stereo not given)

Structure (SMILES)	melting point [°C]
O=C1CCC(c2ccccc2)(N2CCOCC2)CC1	116 to 119
O=c1c2cc(F)ccc2ncn1CCN1CC=C(c2c[nH]c3ccccc23)CC1	138
CC(CCCc1ccc(F)cc1)c1cc(NS(C)(=O)=O)c2c(c1)OC(C)(C)c1ccncc1-2 (stereo not given)	208 to 209
NC(=O)CN1C[C@@H](c2ccccc2)CC1=O	108
c1coc(-c2ccc(-c3cn([C@H]4CN5CCC4CC5)nn3)s2)c1	180
N#Cc1ccc2c(c1)c1c(n2Cc2cccc(F)n2)CCC(NC(=O)C2CC2)C1 (stereo not given)	243 to 245
